This note sets out measurements from patent US12226412B2, “Heteroaryl-ketone fused azadecalin glucocorticoid receptor modulators” (Corcept Therapeutics, Inc., priority 2012, dated 2025).

One assay has as its target T1, human recombinant GR (Homo sapiens, UniProt P04150).
T1 construct: purchased PanVera P2812
T1 sequence (P04150 1-777): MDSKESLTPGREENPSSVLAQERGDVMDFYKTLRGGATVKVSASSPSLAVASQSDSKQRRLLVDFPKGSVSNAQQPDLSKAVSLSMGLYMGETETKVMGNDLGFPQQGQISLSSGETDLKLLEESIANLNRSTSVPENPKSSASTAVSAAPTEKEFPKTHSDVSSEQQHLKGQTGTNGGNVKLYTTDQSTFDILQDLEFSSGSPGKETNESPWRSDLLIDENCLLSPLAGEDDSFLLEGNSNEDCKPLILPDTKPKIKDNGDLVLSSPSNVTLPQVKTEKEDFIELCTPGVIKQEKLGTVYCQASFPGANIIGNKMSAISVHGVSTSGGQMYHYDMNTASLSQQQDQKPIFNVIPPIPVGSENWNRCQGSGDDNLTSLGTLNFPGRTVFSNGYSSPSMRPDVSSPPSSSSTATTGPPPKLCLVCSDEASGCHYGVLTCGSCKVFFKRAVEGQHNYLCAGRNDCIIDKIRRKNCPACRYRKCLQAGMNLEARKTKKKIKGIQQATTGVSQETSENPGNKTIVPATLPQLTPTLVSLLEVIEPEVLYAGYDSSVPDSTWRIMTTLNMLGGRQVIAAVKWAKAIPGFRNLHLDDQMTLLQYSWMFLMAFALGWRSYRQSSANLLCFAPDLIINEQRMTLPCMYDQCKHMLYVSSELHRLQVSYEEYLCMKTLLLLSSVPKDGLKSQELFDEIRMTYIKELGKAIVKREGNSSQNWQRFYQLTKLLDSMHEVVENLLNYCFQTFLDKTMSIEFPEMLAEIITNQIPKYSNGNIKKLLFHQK
Nature of the assay: Human glucocorticoid receptor (GR) fluorescence polarisation (FP) binding assay. In short, it runs like this: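 Competition fluorescence polarisation: 0.5 nM GS Red labelled glucocorticoid and 1 nM recombinant human GR with 8-point half-log compound series, 1% DMSO, 4 h room temperature, potassium phosphate pH 7.4 buffer with molybdate, EDTA, DTT. Affinity derived from the drop in polarisation, normalised to blank wells.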
(In general: Fluorescence polarisation rises when a labelled molecule tumbles more slowly, as on binding a larger partner.)

For assay [1], the system named is induction of TAT by dexamethasone in HepG2 cells. Nature of the assay: HepG2 tyrosine aminotransferase (TAT) assay. Format: cell-based, human.
[2] abbreviates: human recombinant GR, fluorescence polarisation binding assay, read-out: GR binding.
The mark [3] stands for this setting: HepG2 cells, challenge of 100 nM dexamethasone, Ki from IC50 by Cheng and Prusoff equation.

Like-named read-outs stand apart in the source and are kept apart here. A value given as a limit tells only on which side of the number the result lay.

On to `CC(C)n1ncc(S(=O)(=O)N2CCC3=Cc4c(cnn4-c4ccc(F)cc4)C[C@]3(C(=O)c3ccccn3)C2)n1` [Example 11CT, (R)-(1-(4-fluorophenyl)-6-((2-isopropyl-2H-1,2,3-triazol-4-yl)sulfonyl)-4,4a,5,6,7,8-hexahydro-1H-pyrazolo[3,4-g]isoquinolin-4a-yl)(pyridin-2-yl)methanone], for which the Ki at human recombinant GR (setting [2]) was less than 0.5 nM; in assay [1] (setting [3]) it was less than 20 nM.
With `O=C(c1ccccn1)[C@]12Cc3cnn(-c4ccc(F)cc4)c3C=C1CCN(S(=O)(=O)c1ccc(F)cc1)C2` [Example 2, (R)-(1-(4-fluorophenyl)-6-((4-fluorophenyl)sulfonyl)-4,4a,5,6,7,8-hexahydro-1H-pyrazolo[3,4-g]isoquinolin-4a-yl)(pyridin-2-yl)methanone], the Ki at human recombinant GR is less than 0.5 nM; in assay [1], less than 20 nM.
For the compound `COc1c(F)cc(S(=O)(=O)N2CCC3=Cc4c(cnn4-c4ccc(F)cc4)C[C@]3(C(=O)c3ccccn3)C2)cc1F` [Example 15D, (R)-(6-((3,5-difluoro-4-methoxyphenyl)sulfonyl)-1-(4-fluorophenyl)-4,4a,5,6,7,8-hexahydro-1H-pyrazolo[3,4-g]isoquinolin-4a-yl)(pyridin-2-yl)methanone], the Ki on human recombinant GR (setting [2]) is 0.5 to 1 nM; in assay [1] (setting [3]), less than 20 nM.
Regarding `O=C(c1ccccn1)[C@]12Cc3cnn(-c4ccc(F)cc4)c3C=C1CCN(S(=O)(=O)c1cncc(F)c1)C2` [Example 5F, (R)-(1-(4-fluorophenyl)-6-((5-fluoropyridin-3-yl)sulfonyl)-4,4a,5,6,7,8-hexahydro-1H-pyrazolo[3,4-g]isoquinolin-4a-yl)(pyridin-2-yl)methanone], the Ki at human recombinant GR (setting [2]) was less than 0.5 nM; in assay [1] (setting [3]), 20 to 100 nM.
On the same counts, the results for `O=C(c1ccccn1)[C@]12Cc3cnn(-c4ccc(F)cc4)c3C=C1CCN(S(=O)(=O)c1ccc(C(F)(F)F)nc1)C2` [Example 2N, (R)-(1-(4-fluorophenyl)-6-((6-(trifluoromethyl)pyridin-3-yl)sulfonyl)-4,4a,5,6,7,8-hexahydro-1H-pyrazolo[3,4-g]isoquinolin-4a-yl) (pyridin-2-yl)methanone] are less than 0.5 nM and less than 20 nM.
In the same order, the values of `Cc1cnc(C(=O)[C@]23Cc4cnn(-c5ccc(F)cc5)c4C=C2CCN(S(=O)(=O)c2cccc(C(F)(F)F)c2)C3)s1` [Example 12L, (R)-(1-(4-fluorophenyl)-6-((3-(trifluoromethyl)phenyl)sulfonyl)-4,4a,5,6,7,8-hexahydro-1H-pyrazolo[3,4-g]isoquinolin-4a-yl)(5-methylthiazol-2-yl)methanone] are less than 0.5 nM and less than 20 nM.
As to `Cc1ccnc(C(=O)[C@]23Cc4cnn(-c5ccc(F)cc5)c4C=C2CCN(S(=O)(=O)c2ccn(C)n2)C3)c1` [Example 11AK, (R)-(1-(4-fluorophenyl)-6-((1-methyl-1H-pyrazol-3-yl)sulfonyl)-4,4a,5,6,7,8-hexahydro-1H-pyrazolo[3,4-g]isoquinolin-4a-yl)(4-methylpyridin-2-yl)methanone], the Ki at human recombinant GR (setting [2]) was less than 0.5 nM; in assay [1] (setting [3]), less than 20 nM.
On the same counts, the results for `O=C(c1ccccn1)[C@]12Cc3cnn(-c4ccc(F)cc4)c3C=C1CCN(S(=O)(=O)c1cc(F)c(F)c(F)c1)C2` [Example 11Q, (R)-(1-(4-fluorophenyl)-6-((3,4,5-trifluorophenyl)sulfonyl)-4,4a,5,6,7,8-hexahydro-1H-pyrazolo[3,4-g]isoquinolin-4a-yl)(pyridin-2-yl)methanone] are less than 0.5 nM and less than 20 nM.
In the same order, the values of `O=C(c1nccs1)[C@]12Cc3cnn(-c4ccc(F)cc4)c3C=C1CCN(S(=O)(=O)c1cccc(C(F)(F)F)c1)C2` [Example 12, (R)-(1-(4-fluorophenyl)-6-((3-(trifluoromethyl)phenyl)sulfonyl)-4,4a,5,6,7,8-hexahydro-1H-pyrazolo[3,4-g]isoquinolin-4a-yl)(thiazol-2-yl)methanone] are less than 0.5 nM and less than 20 nM.
`O=C(c1ccccn1)[C@]12Cc3cnn(-c4ccc(F)cc4)c3C=C1CCN(S(=O)(=O)c1ccccc1F)C2` [Example 2L, (R)-(1-(4-fluorophenyl)-6-((2-fluorophenyl)sulfonyl)-4,4a,5,6,7,8-hexahydro-1H-pyrazolo[3,4-g]isoquinolin-4a-yl)(pyridin-2-yl)methanone]: the Ki at human recombinant GR (setting [2]) is less than 0.5 nM; in assay [1] (setting [3]), less than 20 nM.
As to `CCn1cc(S(=O)(=O)N2CCC3=Cc4c(cnn4-c4ccc(F)cc4)C[C@]3(C(=O)c3ccccn3)C2)cn1` [Example 11AY, (R)-(6-((1-ethyl-1H-pyrazol-4-yl)sulfonyl)-1-(4-fluorophenyl)-4,4a,5,6,7,8-hexahydro-1H-pyrazolo[3,4-g]isoquinolin-4a-yl)(pyridin-2-yl)methanone], the Ki was less than 0.5 nM on human recombinant GR (setting [2]) and 20 to 100 nM in assay [1] (setting [3]).
In the same order, the values of `Cn1ncc(S(=O)(=O)N2CCC3=Cc4c(cnn4-c4ccc(F)cc4)C[C@]3(C(=O)c3nccs3)C2)n1` (single isomer, unassigned) [Example 12Z] are less than 0.5 nM and not below 100 nM.
On to `Cc1ccnc(C(=O)[C@]23Cc4cnn(-c5ccc(F)cc5)c4C=C2CCN(S(=O)(=O)c2ccc(F)c(C)c2)C3)c1` [Example 11AL, (R)-(6-((4-fluoro-3-methylphenyl)sulfonyl)-1-(4-fluorophenyl)-4,4a,5,6,7,8-hexahydro-1H-pyrazolo[3,4-g]isoquinolin-4a-yl)(4-methylpyridin-2-yl)methanone], for which the Ki was less than 0.5 nM at human recombinant GR (setting [2]) and less than 20 nM in assay [1] (setting [3]).
Turning to `Cc1ccnc(C(=O)[C@]23Cc4cnn(-c5ccc(F)cc5)c4C=C2CCN(S(=O)(=O)c2ccc4c(c2)CCO4)C3)c1` [Example 11AN, (R)-(6-((2,3-dihydrobenzofuran-5-yl)sulfonyl)-1-(4-fluorophenyl)-4,4a,5,6,7,8-hexahydro-1H-pyrazolo[3,4-g]isoquinolin-4a-yl)(4-methylpyridin-2-yl)methanone], the Ki is less than 0.5 nM at human recombinant GR (setting [2]) and less than 20 nM in assay [1] (setting [3]).
`O=C(c1ccccn1)[C@]12Cc3cnn(-c4ccc(F)cc4)c3C=C1CCN(S(=O)(=O)c1ccc(F)c(C(F)(F)F)c1)C2` [Example 2P, (R)-(6-((4-fluoro-3-(trifluoromethyl)phenyl)sulfonyl)-1-(4-fluorophenyl)-4,4a,5,6,7,8-hexahydro-1H-pyrazolo[3,4-g]isoquinolin-4a-yl)(pyridin-2-yl)methanone]: the values for the Ki (at human recombinant GR; in assay [1]) were 0.5 to 1 nM and less than 20 nM, respectively.
For `O=C(c1ccccn1)[C@]12Cc3cnn(-c4ccc(F)cc4)c3C=C1CCN(S(=O)(=O)c1cccc(OC(F)(F)F)c1)C2` [Example 11I, (R)-(1-(4-fluorophenyl)-6-((3-(trifluoromethoxy)phenyl)sulfonyl)-4,4a,5,6,7,8-hexahydro-1H-pyrazolo[3,4-g]isoquinolin-4a-yl)(pyridin-2-yl)methanone], the Ki at human recombinant GR (setting [2]) is less than 0.5 nM; in assay [1] (setting [3]), less than 20 nM.
`Cc1ccc(S(=O)(=O)N2CCC3=Cc4c(cnn4-c4ccc(F)cc4)C[C@]3(C(=O)c3nccn3C)C2)cc1` [Example 13, (R)-(1-(4-fluorophenyl)-6-tosyl-4,4a,5,6,7,8-hexahydro-1H-pyrazolo [3,4-g]isoquinolin-4a-yl)(1-methyl-1H-imidazol-2-yl)methanone]: the Ki on human recombinant GR (setting [2]) lay within 0.5 to 1 nM; in assay [1] (setting [3]), 20 to 100 nM.
`Cc1ccnc(C(=O)[C@]23Cc4cnn(-c5ccc(F)cc5)c4C=C2CCN(S(=O)(=O)c2ccc(F)c(F)c2)C3)c1` [Example 11U, (R)-(6-((3,4-difluorophenyl)sulfonyl)-1-(4-fluorophenyl)-4,4a,5,6,7,8-hexahydro-1H-pyrazolo[3,4-g]isoquinolin-4a-yl)(4-methylpyridin-2-yl)methanone]: the Ki is less than 0.5 nM on human recombinant GR (setting [2]) and less than 20 nM in assay [1] (setting [3]).
In the same order, the values of `CCCn1cc(S(=O)(=O)N2CCC3=Cc4c(cnn4-c4ccc(F)cc4)C[C@]3(C(=O)c3ccccn3)C2)nn1` [Example 11CP, (R)-(1-(4-fluorophenyl)-6-((1-propyl-1H-1,2,3-triazol-4-yl)sulfonyl)-4,4a,5,6,7,8-hexahydro-1H-pyrazolo[3,4-g]isoquinolin-4a-yl)(pyridin-2-yl)methanone] are less than 0.5 nM and less than 20 nM.
In the same order, the values of `Cc1cccc(S(=O)(=O)N2CCC3=Cc4c(cnn4-c4ccc(F)cc4)C[C@]3(C(=O)c3cscn3)C2)c1` [Example 11F, (R)-(1-(4-fluorophenyl)-6-(m-tolylsulfonyl)-4,4a,5,6,7,8-hexahydro-1H-pyrazolo [3,4-g]isoquinolin-4a-yl)(thiazol-4-yl)methanone] are less than 0.5 nM and 20 to 100 nM.
